Patent publication US20240246946A1, “MODULATORS OF TREX1” (Constellation Pharmaceuticals, Inc., priority 2021, published 2024)

Tests used:
full length mouse TREX1 = target: T1, full length mouse TREX1 (Mus musculus, UniProt Q91XB0); test: mTREX1 Biochemical Assay (fluorescence, dsDNA substrate degradation); settings: biochemical, read-out: mTREX1 IC50
T1 construct: N-terminally His-Tev tagged full length mouse TREX1; made in house; host or cells: E. coli
T1 sequence (Q91XB0 1-314): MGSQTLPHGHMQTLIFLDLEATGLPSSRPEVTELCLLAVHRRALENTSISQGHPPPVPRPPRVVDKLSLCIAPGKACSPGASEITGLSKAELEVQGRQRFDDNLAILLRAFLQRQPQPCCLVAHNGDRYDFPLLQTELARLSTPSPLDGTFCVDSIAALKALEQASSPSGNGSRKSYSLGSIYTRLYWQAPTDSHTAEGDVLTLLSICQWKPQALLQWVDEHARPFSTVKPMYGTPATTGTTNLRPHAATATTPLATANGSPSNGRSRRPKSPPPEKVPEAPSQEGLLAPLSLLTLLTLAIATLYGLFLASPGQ
Procedure, shortened: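 Reaction run 18 h at 25° C. with 60 nM TEX615/quencher-labelled dsDNA and 6 pM mouse TREX1 in Tris buffer (pH 7.4, 5 mM MgCl2, 1.0% DMSO), enzyme having sat 4 h with compound across 10 concentrations. EDTA quench; substrate degradation measured as fluorescence increase.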

full length human TREX1 = target: T2, full length human TREX1 (Homo sapiens, UniProt Q9NSU2); test: TREX1 Kinetics Assays (TR-FRET association and dissociation, global fit with Kintek Explorer); assay type: binding; settings: for Kd / residence time: hTREX1, TR-FRET kinetics; for koff / kon: hTREX1, TR-FRET, 25° C., global fit
T2 construct: N-terminally His-Tev tagged full length human TREX1; made in house; host or cells: E. coli
T2 sequence (Q9NSU2 1-314): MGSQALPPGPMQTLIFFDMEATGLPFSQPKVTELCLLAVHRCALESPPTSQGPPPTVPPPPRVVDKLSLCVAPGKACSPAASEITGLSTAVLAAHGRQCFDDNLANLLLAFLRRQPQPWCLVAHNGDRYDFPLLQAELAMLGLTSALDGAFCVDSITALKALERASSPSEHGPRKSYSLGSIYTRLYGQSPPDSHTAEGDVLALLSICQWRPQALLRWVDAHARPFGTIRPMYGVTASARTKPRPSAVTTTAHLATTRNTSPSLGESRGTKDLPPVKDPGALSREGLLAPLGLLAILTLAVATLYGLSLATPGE
Protocol: Compound binding kinetics were assessed using a pair of TR-FRET assays which measure the proportion of protein bound to a biotinylated TREX1 inhibitor (“probe”).
N-terminally His-Tev tagged full length human TREX1 (expressed in E. coli and purified in house), complexed with Eu-W1024-anti-6×His (“Eu”; PerkinElmer) in reaction buffer (50 mM Tris, 150 mM NaCl, 2 mM DTT, 0.1 mg/mL BSA, 0.01% (w/v) Tween-20, 5 mM MgCl2, pH 7.4) was combined with an equal volume of test compound in reaction buffer and incubated at 25° C. Concentrations at this stage were 1 nM TREX1/Eu complex, and four concentrations of compound (diluted from 10 mM stocks in 100% DMSO). At defined time points, 18 μL of this mixture was withdrawn and combined with 2 μL probe to a final concentration of 1 μM probe. After incubating for 30 seconds, 18 μL was withdrawn and combined with 2 μL streptavidin-allophycocyanin (“SA-APC”; PerkinElmer) to a final concentration of 1.5 μM SA-APC. Fifteen μL of this mixture was then immediately transferred to a 384-well Black ProxiPlate Plus (PerkinElmer) and read in an EnVision plate reader (PerkinElmer) measuring fluorescence at 615 nm and 665 nm following excitation w/337 nm laser light. Final concentrations were 0.8 nM TREX1/Eu complex, 0.9 μM probe, and 1.5 μM SA-APC.
N-terminally His-Tev tagged full length human TREX1 (expressed in E. coli and purified in house), complexed with Eu-W1024-anti-6×His (“Eu”; PerkinElmer) in reaction buffer (50 mM Tris, 150 mM NaCl, 2 mM DTT, 0.1 mg/mL BSA, 0.01% (w/v) Tween-20, 5 mM MgCl2, pH 7.4) was combined with an equal volume of test compound in reaction buffer. Concentrations at this stage were 100 nM TREX1/Eu complex and 100 nM test compound (diluted from 10 mM stocks in 100% DMSO). Following an equilibration period of at least an hour at 25° C., this mixture was diluted 100-fold into reaction buffer containing 1 μM probe, and incubated at 25° C. At defined time points, 36 μL of the reaction mixture was withdrawn and combined with 4 μL streptavidin-allophycocyanin (“SA-APC”; PerkinElmer) to a final concentration of 1.5 μM SA-APC. Fifteen μL of this mixture was then immediately transferred to duplicate wells of a 384-well Black ProxiPlate Plus (PerkinElmer) and read in an EnVision plate reader (PerkinElmer) measuring fluorescence at 615 nm and 665 nm following excitation w/337 nm laser light.
The TR-FRET signal, a ratio of 665 nm/615 nm emitted light, was converted to fraction enzyme bound to test compound by normalizing to low signal (no enzyme or test compound) and high signal (no test compound) controls. Data from both association and dissociation experiments were fitted globally using Kintek Explorer software, which computes the rate constants directly.

IC50 (full length mouse TREX1)	Kd (full length human TREX1)	residence time (full length human TREX1)	koff (full length human TREX1)	kon (full length human TREX1)	Structure (SMILES)
1 to 10 nM	0.231 nM	368 min	4.53e-05 s⁻¹	197000 M⁻¹ s⁻¹	CC(c1nc(C(=O)Nc2cnoc2)c(O)c(=O)n1C)C(c1cnn(C)c1)c1ccccc1C#N (single isomer, unassigned) [Example 2 D1E1]
< 1 nM	0.209 nM	370 min	4.5e-05 s⁻¹	215000 M⁻¹ s⁻¹	CCn1cc(C(c2ccccc2C#N)C(C)c2nc(C(=O)Nc3cnoc3)c(O)c(=O)n2C)cn1 (single isomer, unassigned) [Example 13 D1E1]
1 to 10 nM	–	461 min	3.62e-05 s⁻¹	–	Cc1cc(C(c2cc(F)ccc2C#N)C(C)c2nc(C(=O)Nc3cnoc3)c(O)c(=O)n2C)n(C)n1 (single isomer, unassigned) [Example 111 D1E2]
1 to 10 nM	–	741 min	2.25e-05 s⁻¹	–	Cc1ncc(C(c2cc(F)ccc2C#N)C(C)c2nc(C(=O)Nc3cnoc3)c(O)c(=O)n2C)nc1C (single isomer, unassigned) [Example 124 D1E2]
1 to 10 nM	–	431 min	3.87e-05 s⁻¹	–	Cc1nn(C)cc1C(c1cc(F)ccc1C#N)C(C)c1nc(C(=O)Nc2cnoc2)c(O)c(=O)n1C (single isomer, unassigned) [Example 57 D1E2]
1 to 10 nM	0.614 nM	256 min	6.5e-05 s⁻¹	106000 M⁻¹ s⁻¹	CC(c1nc(C(=O)Nc2cnoc2)c(O)c(=O)n1C)C(c1cnn(CC(F)(F)F)c1)c1ccccc1C#N (single isomer, unassigned) [Example 22 D1E1]
1 to 10 nM	–	662 min	2.52e-05 s⁻¹	–	CC(c1nc(C(=O)Nc2cnoc2)c(O)c(=O)n1C)C(c1cnn(C(C)C)c1)c1ccccc1C#N (single isomer, unassigned) [Example 105 D1E2]
< 1 nM	0.351 nM	290 min	5.73e-05 s⁻¹	163000 M⁻¹ s⁻¹	CC(c1nc(C(=O)Nc2cnoc2)c(O)c(=O)n1C)C(c1cnn(C(F)F)c1)c1ccccc1C#N (single isomer, unassigned) [Example 38 D1E1]
< 1 nM	0.036 nM	613 min	2.72e-05 s⁻¹	757000 M⁻¹ s⁻¹	CC(c1nc(C(=O)Nc2cnoc2)c(O)c(=O)n1C)C(c1ccccc1C#N)c1cn(C)nc1C#N (single isomer, unassigned) [Example 10 D1E1]
1 to 10 nM	0.255 nM	483 min	3.45e-05 s⁻¹	135000 M⁻¹ s⁻¹	Cc1cncc(C(c2ccccc2C#N)C(C)c2nc(C(=O)Nc3cnoc3)c(O)c(=O)n2C)n1 (single isomer, unassigned) [Example 53 D1E2]
< 1 nM	–	1450 min	1.15e-05 s⁻¹	–	Cc1nc(C)c(C(c2ccccc2C#N)C(C)c2nc(C(=O)Nc3cnoc3)c(O)c(=O)n2C)nc1C (single isomer, unassigned) [Example 122 D1E1]
< 1 nM	0.28 nM	353 min	4.72e-05 s⁻¹	168000 M⁻¹ s⁻¹	CCn1cc(C(c2cc(F)ccc2C#N)C(C)c2nc(C(=O)Nc3cnoc3)c(O)c(=O)n2C)cn1 (single isomer, unassigned) [Example 17 D1E2]
1 to 10 nM	–	714 min	2.33e-05 s⁻¹	–	Cc1ncc(C(c2ccccc2C#N)C(C)c2nc(C(=O)Nc3cnoc3)c(O)c(=O)n2C)nc1C (single isomer, unassigned) [Example 81 D1E2]
1 to 10 nM	0.405 nM	269 min	6.2e-05 s⁻¹	153000 M⁻¹ s⁻¹	CC(c1nc(C(=O)Nc2cnoc2)c(O)c(=O)n1C)C(c1cnn(C)c1)c1cc(Cl)ccc1C#N (single isomer, unassigned) [Example 26 D1E2]
1 to 10 nM	0.245 nM	310 min	5.38e-05 s⁻¹	220000 M⁻¹ s⁻¹	CC(c1nc(C(=O)Nc2cnoc2)c(O)c(=O)n1C)C(c1cnn(C)c1)c1cc(F)ccc1C#N (single isomer, unassigned) [Example 14 D1E2]
< 1 nM	0.245 nM	461 min	3.62e-05 s⁻¹	147000 M⁻¹ s⁻¹	CCn1cc(C(c2ccc(F)cc2C#N)C(C)c2nc(C(=O)Nc3cnoc3)c(O)c(=O)n2C)cn1 (single isomer, unassigned) [Example 16 D1E1]
1 to 10 nM	–	413 min	4.03e-05 s⁻¹	–	Cc1nn(C)c(C)c1C(c1ccccc1C#N)C(C)c1nc(C(=O)Nc2cnoc2)c(O)c(=O)n1C (single isomer, unassigned) [Example 78 D1E1]
1 to 10 nM	–	543 min	3.07e-05 s⁻¹	–	Cc1ncc(C(c2ccccc2Cl)C(C)c2nc(C(=O)Nc3cnoc3)c(O)c(=O)n2C)nc1C (single isomer, unassigned) [Example 125 D1E2]
1 to 10 nM	–	515 min	3.23e-05 s⁻¹	–	Cc1cnc(C(c2cc(F)ccc2C#N)C(C)c2nc(C(=O)Nc3cnoc3)c(O)c(=O)n2C)cn1 (single isomer, unassigned) [Example 115 D1E2]
1 to 10 nM	–	505 min	3.3e-05 s⁻¹	–	CCn1c(C(C)C(c2cnn(C)c2)c2ccccc2C#N)nc(C(=O)Nc2cnoc2)c(O)c1=O (single isomer, unassigned) [Example 149 D1E2]
1 to 10 nM	0.338 nM	215 min	7.77e-05 s⁻¹	230000 M⁻¹ s⁻¹	CC(c1nc(C(=O)Nc2cnoc2)c(O)c(=O)n1C)C(c1cnn(C)c1)c1ccccc1Cl (single isomer, unassigned) [Example 77 D1E1]
< 1 nM	–	515 min	3.23e-05 s⁻¹	–	C[C@H](c1nc(C(=O)Nc2cnoc2)c(O)c(=O)n1C)[C@@H](c1cc(F)ccc1C#N)c1cn(C)nc1C#N [Example 59 D1E2]
< 1 nM	–	1820 min	9.17e-06 s⁻¹	–	CC(c1nc(C(=O)Nc2cnoc2)c(O)c(=O)n1C)C(c1ccccc1C#N)c1cn(C)nc1F (single isomer, unassigned) [Example 91 D1E1]
1 to 10 nM	0.529 nM	290 min	5.73e-05 s⁻¹	108000 M⁻¹ s⁻¹	CC(c1nc(C(=O)Nc2cnoc2)c(O)c(=O)n1C)C(c1cnn(CC2CC2)c1)c1ccccc1C#N (single isomer, unassigned) [Example 23 D1E2]
